Earlier results as cited in patent publication EP3623369A1, “NOVEL MORPHOLINYL AMINE COMPOUNDS FOR THE TREATMENT OF AUTOIMMUNE DISEASE” (F. Hoffmann-La Roche AG, priority 2018, dated 2020).
pIC50: −log10 of the molar value.

How the values were obtained:
hTLR7 = target: T1, hTLR7 (Homo sapiens, UniProt Q9NYK1); parameters: host or cells: HEK; conditions: data disclosed in US20150105370; read-out: HEK/hTLR7 IC50; cited from earlier work
T1 sequence (Q9NYK1 27-1049): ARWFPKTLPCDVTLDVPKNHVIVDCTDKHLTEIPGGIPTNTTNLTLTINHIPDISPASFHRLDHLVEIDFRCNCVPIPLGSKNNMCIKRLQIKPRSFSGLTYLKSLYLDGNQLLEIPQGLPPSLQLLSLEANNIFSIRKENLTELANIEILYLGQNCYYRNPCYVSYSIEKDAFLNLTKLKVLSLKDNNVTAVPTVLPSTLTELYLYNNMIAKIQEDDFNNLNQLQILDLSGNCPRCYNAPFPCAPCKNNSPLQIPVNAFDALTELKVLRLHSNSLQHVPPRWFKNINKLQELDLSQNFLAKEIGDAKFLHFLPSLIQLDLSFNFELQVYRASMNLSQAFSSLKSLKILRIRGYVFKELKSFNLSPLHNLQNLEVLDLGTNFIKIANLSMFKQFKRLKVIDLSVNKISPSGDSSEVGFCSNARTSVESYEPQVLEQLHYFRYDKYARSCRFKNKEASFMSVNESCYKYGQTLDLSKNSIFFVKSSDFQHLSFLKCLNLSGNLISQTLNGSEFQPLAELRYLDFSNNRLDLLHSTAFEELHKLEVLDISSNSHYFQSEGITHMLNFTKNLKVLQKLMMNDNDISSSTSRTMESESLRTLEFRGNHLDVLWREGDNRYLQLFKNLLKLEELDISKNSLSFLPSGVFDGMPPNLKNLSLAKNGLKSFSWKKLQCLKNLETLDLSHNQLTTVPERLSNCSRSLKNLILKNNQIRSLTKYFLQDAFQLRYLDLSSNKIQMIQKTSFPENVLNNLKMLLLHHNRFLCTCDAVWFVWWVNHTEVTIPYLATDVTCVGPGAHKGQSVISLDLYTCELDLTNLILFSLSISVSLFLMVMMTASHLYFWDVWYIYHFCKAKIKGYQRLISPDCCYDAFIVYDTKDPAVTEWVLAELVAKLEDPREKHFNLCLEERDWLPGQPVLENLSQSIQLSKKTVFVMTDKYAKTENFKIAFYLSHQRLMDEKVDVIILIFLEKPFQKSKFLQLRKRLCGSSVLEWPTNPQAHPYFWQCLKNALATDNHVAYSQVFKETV

hTLR9 = target: T2, hTLR9 (Homo sapiens, UniProt Q9NR96); parameters: host or cells: HEK; conditions: data disclosed in US20150105370; read-out: HEK/hTLR9 IC50; cited from earlier work
T2 sequence (Q9NR96 26-1032): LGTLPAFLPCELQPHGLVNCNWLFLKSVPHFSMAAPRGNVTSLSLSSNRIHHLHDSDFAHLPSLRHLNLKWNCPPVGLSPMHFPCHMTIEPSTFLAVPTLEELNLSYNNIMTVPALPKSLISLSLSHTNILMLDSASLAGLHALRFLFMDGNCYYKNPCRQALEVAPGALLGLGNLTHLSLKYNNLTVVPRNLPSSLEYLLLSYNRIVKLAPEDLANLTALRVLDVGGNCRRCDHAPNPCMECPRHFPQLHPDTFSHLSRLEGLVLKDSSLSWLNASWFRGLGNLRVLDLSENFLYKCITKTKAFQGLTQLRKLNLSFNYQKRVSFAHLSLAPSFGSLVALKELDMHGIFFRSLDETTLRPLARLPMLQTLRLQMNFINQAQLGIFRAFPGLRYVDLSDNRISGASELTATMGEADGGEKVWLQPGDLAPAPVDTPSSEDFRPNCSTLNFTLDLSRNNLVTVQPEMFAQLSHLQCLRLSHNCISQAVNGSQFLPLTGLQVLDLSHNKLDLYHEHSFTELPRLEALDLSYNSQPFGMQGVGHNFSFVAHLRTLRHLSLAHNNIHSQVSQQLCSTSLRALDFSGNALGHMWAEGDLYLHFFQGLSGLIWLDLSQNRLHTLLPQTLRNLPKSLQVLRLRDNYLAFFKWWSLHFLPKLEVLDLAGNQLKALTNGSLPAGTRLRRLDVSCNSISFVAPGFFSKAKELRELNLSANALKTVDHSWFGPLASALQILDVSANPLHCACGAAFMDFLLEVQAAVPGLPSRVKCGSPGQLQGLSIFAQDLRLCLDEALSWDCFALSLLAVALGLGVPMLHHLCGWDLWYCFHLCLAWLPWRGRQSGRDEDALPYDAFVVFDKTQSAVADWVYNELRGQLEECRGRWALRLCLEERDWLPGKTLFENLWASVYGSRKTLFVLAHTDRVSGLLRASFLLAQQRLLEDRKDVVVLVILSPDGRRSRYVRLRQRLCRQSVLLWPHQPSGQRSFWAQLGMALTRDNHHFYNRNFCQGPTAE

Question: With `C[C@@H]1CN(c2ccc(C#N)c3ncccc23)C[C@H](CNCc2ccccc2)O1` [ER-886509, reference compound] as the compound, how does the pIC50 (hTLR7) read?
Answer: 7.36

Question: And the pIC50 (hTLR9)?
Answer: 5.40
